This is an account of results in patent publication US20110100079A1, “METHOD FOR IMPARTING STRESS TOLERANCE TO PLANT” (priority 2007, published 2011).

Type in all cases: in vivo
Assay [1] relates to tomato. In words: Example 7 drying stress test (tomato), soil culture. The settings on record: 23° C., leaf, 100 ppm, 2 weeks. On the procedure:
(§1) The environmental conditions in a climatic chamber were controlled so as to have a temperature of 23° C., an illuminance by a fluorescent light of 5000 Lux, and a daily light-dark cycle of a 16-hour light period and an 8-hour dark period. Tomatoes as prepared above were transplanted in size-3 (9 cm) pots. During the test period, the pF value was controlled by adding a suitable amount of tap water once a day so as to attain a specific drying stress value. A treatment solution containing a compound of Table 1 in a specific concentration (the remainder was water) was prepared and sprayed onto the leaves or applied to the underground portions. […] A comparative example was constructed to reflect the drying stress-free optimum cultivation conditions to investigate the plant energizing ability. […] Moreover, when the products of the present invention and the comparative products were compared, the stress tolerance imparting ability of the products of the present invention was higher in respective drying stress conditions.

Assay [2] deals with “Momotaro” tomato. In words: Example 1 salt stress tolerance imparting test (tomato, hydroponic, Otsuka 1/2A + NaCl). The settings on record: NaCl 3510 ppm, leaf, 2 weeks. The procedure:
(1) Salt stress-free test conditions: NaCl concentration (water potential by Nan): 0 ppm (0 MPa). Other cultivation conditions were as the same as the conditions of the drying stress test.
When the leaves in the 2-leaf stage fully unfolded, the soil on the tomato roots was carefully washed away with running water, and a test was performed.
Method of Salt Stress Tolerance Imparting Test
The environmental conditions in a climatic chamber were controlled so as to have a temperature of 23° C., an illuminance by a fluorescent light of 5000 Lux, and a daily light-dark cycle of a 16-hour light period and an 8-hour dark period. […] A treatment solution containing a compound of Table 1 in a specific concentration (the remainder was water) was prepared and sprayed onto the leaves or applied to the underground portion. In addition, a control plot to which no NaCl was added, not imposing a salt stress (this is a control plot for plant body weight 2 for Formula (ii) and is a stress-free control plot) and a control plot to which NaCl was added in various concentrations, imposing a salt stress, and to which the treatment solution was not applied (this is a control plot for plant body weight 1 for Formula (ii) and is a control plot including a salt stress) were prepared as controls. Ten specimens were prepared for each of the test plot and the control plots, and a plant stress level and an extent of imparting plant stress tolerance were calculated according to Formulas (II) above using as a fresh plant body weight the average of the fresh plant body weights of each specimen 2 weeks after the beginning of the test.

Assay [3] has as its system “Momotaro” tomato. The assay can be described thus: Example 3 drying stress tolerance imparting test (tomato). The settings on record: pF 2.3, leaf, 3 weeks.
The test system of assay [4] is tomato. In words: Example 8 temperature stress test (tomato), soil culture. The note with it: leaf, 100 ppm, 2 weeks. The procedure:
as §1, with “Other Conditions were as in Example 5. The” for “The”, “have” for “have a temperature of 23° C.,”, “Lux,” for “Lux, and”, “period, and various temperatures.” for “period.”, “pots.” for “pots. During the test period, the pF value was controlled by adding a suitable amount of tap water once a day so as to attain a specific drying stress value.”, “temperature” for “drying”

For the substance “Alkyl (C10) polyglycoside [Product of present invention 15]”, the “Fresh weight, relative value (untreated plot = 100), Comparison 1” value with tomato [1] (stress-free: tomato soil culture, EC 1, pF 1.7, two-leaf stage) was 101; in the assay with tomato [4] (stress-free: tomato soil culture, cultivation temperature 23, EC 1, pF 1.7, two-leaf stage), 102. Moreover, the “Fresh weight, relative value (untreated plot = 100), Test 1” value came to 121 in the assay with tomato [1] (tomato soil culture, EC 1, pF 2.8, two-leaf stage) and 116 in the assay with tomato [4] (tomato soil culture, cultivation temperature 10, EC 1, pF 1.7, two-leaf stage). Further, the “Fresh weight, relative value (untreated plot = 100), Test 4” value with tomato [1] (tomato soil culture, EC 1, pF 3.5, five-leaf stage) came to 139; in the assay with tomato [4] (tomato soil culture, cultivation temperature 35, EC 1, pF 1.7, two-leaf stage), 126. The “Fresh weight, relative value (untreated plot = 100), Test 2” value was 147 with tomato [1] (tomato soil culture, EC 1, pF 3.5, two-leaf stage) and 119 with tomato [4] (tomato soil culture, cultivation temperature 16, EC 1, pF 1.7, two-leaf stage). The “Fresh weight, relative value (untreated plot = 100), Test 3” value stood at 126 with tomato [1] (tomato soil culture, EC 1, pF 4.1, two-leaf stage) and 136 in the assay with tomato [4] (tomato soil culture, cultivation temperature 29, EC 1, pF 1.7, two-leaf stage). Besides, the “Extent of imparting plant stress tolerance” value with “Momotaro” tomato [2] (100 ppm) turned out to be 115%; with “Momotaro” tomato [2] (200 ppm), 114%; with “Momotaro” tomato [3] (100 ppm once a week), 117%; in the assay with “Momotaro” tomato [3] (200 ppm once a week) it was 115%.
